Experimental data: patent publication US20260125347A1, “l,2-SUBSTITUTED 3-OXOPYRAZOLIDINE DERIVATIVES AS PROSTAGLANDIN E2 RECEPTOR 4 (EP4) AGONISTS FOR THE TREATMENT OF GASTROINTESTINAL AND PULMONARY DISEASES” (NXERA PHARMA UK LIMITED, priority 2022, published 2026)

What was measured:
Caco-2 cells = assay: Unidirectional Caco-2 cell permeability assay; type: in vitro ADME; settings: 10 μM, apical pH 6.5, basolateral pH 7.4, 1 hour, 37° C., n=2
Method: (§1) Caco-2 cells (ECACC) were seeded onto 24-well Transwell plates at 2×10^5 cells per well and used in confluent monolayers after a 21 day culture at 37° C. under 5% CO2. Test compounds were incubated at 10 μM, 0.2% DMSO final, n=2 in assay buffer (Hanks balanced salt solution supplemented with 25 mM HEPES, adjusted to pH 6.5). Hanks balanced salt solution supplemented with 25 mM HEPES, adjusted to pH 7.4 (0.2% DMSO final) was used for the basolateral chamber (as receiver).
(§2) Incubations were performed at 37° C., with samples removed from both donor and acceptor chambers at T=0 and 1 hour and compound analysed by mass spectrometry (LC-MS/MS) including an analytical internal standard (0.5 μM carbamazepine).
(§3) Apparent permeability (Papp) values are shown in Table 3 and were determined from the relationship:
(§4) Where V is the volume of each Transwell compartment (apical 125 μL, basolateral 600 μL), and concentrations are the relative MS responses for compound (normalized to internal standard) in the donor chamber before incubation and acceptor chamber at the end of the incubation Area=area of cells exposed for drug transfer (0.33 cm^2).
(§5) Lucifer Yellow (LY) was added to the apical buffer in all wells to assess viability of the cell layer. As LY cannot freely permeate lipophilic barriers, a high degree of LY transport indicates poor integrity of the cell layer and wells with a LY Papp>10×10^6 cm/s were rejected.
(§6) Compound recovery from the wells was determined from MS responses (normalized to internal standard) in donor and acceptor chambers at the end of incubation compared to response in the donor chamber pre-incubation.

human EP4 = target: T1, human EP4 (Homo sapiens, UniProt P35408); assay: cAMP Gs functional assay (HTRF cAMP dynamic-2) in HEK293 cells transfected with EP4 Bacmam virus; type: cell-based; settings: for EC50: HEK293 cells expressing human EP4, 30 mins at 37° C., mid-point of the curve, read-out: cAMP human EP4 pEC50 (converted); for cAMP human EP4 Emax: HEK293 cells expressing human EP4, unit assumed; for cAMP human EP4 Emax / Emax: positive control 10 μM PGE2; for Emax: HEK293, HEK293 cells expressing human EP4
T1 construct: expressed in transfected cells; host or cells: HEK293 cells transduced with EP4 BacMam virus (virus generated in SF9 cells)
Method: Cloning, Baculovirus generation, large scale infection of HEK293 cells and membrane preparation: Human prostaglandin E2 receptor 4 (EP4) was cloned into pBacMam expression vector (GeneScript, UK). Transposition of EP4 DNA was performed using Invitrogen's Bac-to-Bac Baculovirus Expression Systems. P0 baculovirus was generated by transfecting SF9 Cells with bacmid DNA using Cellfectin II transfection reagent (ThermoFisher Scientific, UK). Following P0 generation P1 virus was then generated ready for large scale infection and membrane preparation. HEK293 cells were grown in DMEM (ThermoFisher Scientific, UK), supplemented with 10% heat inactivated fetal bovine serum (FBS). Cells were infected at a seeding density of 3.5 million cells/mL in 500 cm^3 flasks at 5% v/v EP4 Bacman. Expression was carried out over a 36 hr period at 37° C. with 5% CO2. The cells were removed using PBS and a cell scrapper. The cell culture was centrifuged at 2500 RPM for 10 mins at 4° C. The supernatant was then poured off and the pellet stored at −80° C. The pellet was defrosted and re-suspended in 15 mL of homogenising buffer (20 mM HEPES, 10 mM EDTA, pH 7.4). Then homogenised in mechanical homogeniser (VMR) for 10 seconds. The membrane was centrifuged in centrifuge tubes at 40,000 g for 15 mins at 4° C. The supernatant was poured away and re-suspended in 15 mL of homogenising buffer. Homogenised for 20 seconds. The membrane was centrifuged at 40,000 g for 45 mins at 4° C. The membrane was re-suspended in 3 mL of storage buffer (20 mM HEPES, 0.1 mM EDTA, pH 7.4) mixing well. The resulting membranes were then stored at −80° C. cAMP Gs Functional Assay: CAMP production following EP4 receptor activation was determined using the Homogeneous Time-Resolved Fluorescence (HTRF) CAMP dynamic-2 assay (Cisbio, France). HEK293 cells were transfected using a 0.5% EP4 Bacmam virus for 36 hours, before dissociating the cells, and freezing at −150° C. On the day of testing, increasing concentration of test compounds, alongside positive controls (10 μM PGE2 (Tocris, Abingdon, UK)) and negative control (DMSO (Sigma-Aldrich, UK) were added to a ProxiPlate-384 Plus, White 384-shallow well Mircoplate, (PerkinElmer, USA) using the ECHO dispense. Cells were defrosted in a water bath and resuspended in DMEM supplemented with 10% FBS before centrifuging at 1200 RPM for 5 mins to form a pellet. The pellet was resuspended in assay buffer (DMEM+0.5 mM IBMX (Tocris, Abingdon, UK)) to 0.5×10^6 cells/mL. Cell suspension, for a final assay concentration of 5000 cell/well was added using the multidrop to the pre-dispensed assay plate. The plate was then incubated at 37° C. for 30 mins, with 5% CO2. The CAMP production was determined as manufacturer's instructions, before plates were read on a PheraStar fluorescence plate reader (BMG LabTech, Germany).

[1] = Unidirectional Caco-2 cell permeability assay; type: in vitro ADME; settings: human, Caco-2, 10 μM, apical pH 6.5, basolateral pH 7.4, 1 hour, 37° C., n=2
Method: as §1, §2, §3, §4, §5, §6

T1 sequence (P35408 whole entry): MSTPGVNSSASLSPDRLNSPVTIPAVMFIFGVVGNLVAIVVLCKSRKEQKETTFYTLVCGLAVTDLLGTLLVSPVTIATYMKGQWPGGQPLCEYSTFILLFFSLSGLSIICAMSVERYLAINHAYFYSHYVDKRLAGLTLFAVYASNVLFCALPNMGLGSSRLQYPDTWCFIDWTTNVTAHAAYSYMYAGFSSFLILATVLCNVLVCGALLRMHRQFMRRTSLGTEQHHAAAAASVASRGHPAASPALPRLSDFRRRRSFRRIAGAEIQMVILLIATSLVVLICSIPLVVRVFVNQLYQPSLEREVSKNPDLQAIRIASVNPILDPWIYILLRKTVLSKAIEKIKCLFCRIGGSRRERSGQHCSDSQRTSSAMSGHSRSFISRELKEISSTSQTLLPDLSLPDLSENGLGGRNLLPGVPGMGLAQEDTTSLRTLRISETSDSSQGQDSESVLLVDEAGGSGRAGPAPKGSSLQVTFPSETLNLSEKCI

SMILES | Caco-2 Mean Papp A-B (Caco-2 cells) | EC50 (human EP4) [nM] | cAMP human EP4 Emax (human EP4) [%] | Papp A→B at 1 h, 10 μM [1] [×10⁻⁶ cm/s] | Emax (human EP4) [%]
Cc1cc(C(N)=O)ccc1-c1cccc(C(O)CCN2CCC(=O)N2CCc2ccc(C(=O)O)cc2)c1 (single isomer, unassigned) [2; isomer 2] | <0.47 10^−6 cm/s | 0.501 | 98 |  | 
Cc1cc(S(N)(=O)=O)ccc1-c1cccc(C(O)CCN2CCC(=O)N2CCc2ccc(C(=O)O)cc2)c1 (racemic) [3; racemate] |  | 2.51 |  | 0.3 | 97
Cc1cc(C(N)=O)ccc1-c1cccc(C(O)CCN2CCC(=O)N2CCc2ccc(C(=O)O)cc2)c1 (single isomer, unassigned) [2; isomer 1] |  | 158 |  | < 0.29 | 95
Cc1cc(O)ccc1-c1cccc(C(O)CCN2CCC(=O)N2CCc2ccc(C(=O)O)cc2)c1 (racemic) [1; racemate] |  | 3.98 |  | 0.68 | 97
Cc1cc(O)ccc1-c1cccc(C(O)CCN2CCC(=O)N2CCc2ccc(C(=O)O)cc2)c1 (single isomer, unassigned) [1; isomer 1] |  | 50.1 |  | 0.86 | 97
Cc1cc(OS(N)(=O)=O)ccc1-c1cccc(C(O)CCN2CCC(=O)N2CCc2ccc(C(=O)O)cc2)c1 (racemic) [4; racemate] |  | 6.31 |  |  | 97
Cc1cc(OS(N)(=O)=O)ccc1-c1cccc(C(O)CCN2CCC(=O)N2CCc2ccc(C(=O)O)cc2)c1 (single isomer, unassigned) [4; isomer 1] | 0.3 10^−6 cm/s | 251 |  |  | 93
Cc1cc(C(N)=O)ccc1-c1cccc(C(O)CCN2CCC(=O)N2CCc2ccc(C(=O)O)cc2)c1 (racemic) [2; racemate] |  | 3.16 |  |  | 99
Cc1cc(S(N)(=O)=O)ccc1-c1cccc(C(O)CCN2CCC(=O)N2CCc2ccc(C(=O)O)cc2)c1 (single isomer, unassigned) [3; isomer 2] | 0.72 10^−6 cm/s | 1.26 | 98 |  | 
Cc1cc(OS(N)(=O)=O)ccc1-c1cccc(C(O)CCN2CCC(=O)N2CCc2ccc(C(=O)O)cc2)c1 (single isomer, unassigned) [4; isomer 2] | 0.67 10^−6 cm/s | 2.51 | 97 |  | 
Cc1cc(O)ccc1-c1cccc(C(O)CCN2CCC(=O)N2CCc2ccc(C(=O)O)cc2)c1 (single isomer, unassigned) [1; isomer 2] |  | 2 | 99 |  | 
Cc1cc(S(N)(=O)=O)ccc1-c1cccc(C(O)CCN2CCC(=O)N2CCc2ccc(C(=O)O)cc2)c1 (single isomer, unassigned) [3; isomer 1] | 0.23 10^−6 cm/s | 39.8 |  |  | 93

The next lines start with the values.

Caco-2 Mean Papp A-B (Caco-2 cells) | EC50 (human EP4) [nM] | cAMP human EP4 Emax (human EP4) [%] | Papp A→B at 1 h, 10 μM [1] [×10⁻⁶ cm/s] | Emax (human EP4) [%] | SMILES
 | 31.6 | 99 | < 0.3 |  | Cc1cc(S(N)(=O)=O)ccc1-c1cccc(C(O)CCN2CCC(=O)N2CCc2cc(F)c(C(=O)O)c(F)c2)c1 (single isomer, unassigned) [8; isomer 2]
 | 50.1 | 96 |  |  | Cc1cc(S(N)(=O)=O)ccc1-c1cccc(C(O)CCN2CCC(=O)N2CCc2ccc(C(=O)O)c(O)c2)c1 (single isomer, unassigned) [6; isomer 2]
 | 0.158 |  | < 0.1 | 97 | Cc1cc(C(N)=O)ccc1-c1cccc(C(O)CCN2CCC(=O)N2CCc2ccc(-c3nnn[nH]3)cc2)c1 (racemic) [9; racemate]
 | 2510 |  |  | 96 | Cc1cc(S(N)(=O)=O)ccc1-c1cccc(C(O)CCN2CCC(=O)N2CCc2cc(F)c(C(=O)O)c(F)c2)c1 (single isomer, unassigned) [8; isomer 1]
 | 0.251 | 96 | < 0.1 |  | Cc1cc(C(N)=O)ccc1-c1cccc(C(O)CCN2CCC(=O)N2CCc2ccc(-c3nnn[nH]3)cc2)c1 (single isomer, unassigned) [9; isomer 2]
 | 3.98 |  | < 0.1 | 99 | Cc1cc(C(N)=O)ccc1-c1cccc(C(O)CCN2CCC(=O)N2CCc2ccc(C(=O)O)c(O)c2)c1 (single isomer, unassigned) [7; isomer 1]
 | 15.8 | 96 | < 0.1 |  | Cc1cc(C(N)=O)ccc1-c1cccc(C(O)CCN2CCC(=O)N2CCc2cc(F)c(C(=O)O)c(F)c2)c1 (single isomer, unassigned) [5; isomer 2]
 | 50.1 |  |  | 97 | Cc1cc(C(N)=O)ccc1-c1cccc(C(O)CCN2CCC(=O)N2CCc2cc(F)c(C(=O)O)c(F)c2)c1 (racemic) [5; racemate]
 | 3.98 |  | < 0.1 | 97 | Cc1cc(S(N)(=O)=O)ccc1-c1cccc(C(O)CCN2CCC(=O)N2CCc2ccc(C(=O)O)c(O)c2)c1 (single isomer, unassigned) [6; isomer 1]
 | 794 |  |  | 88 | Cc1cc(C(N)=O)ccc1-c1cccc(C(O)CCN2CCC(=O)N2CCc2cc(F)c(C(=O)O)c(F)c2)c1 (single isomer, unassigned) [5; isomer 1]
 | 39.8 |  |  | 93 | Cc1cc(C(N)=O)ccc1-c1cccc(C(O)CCN2CCC(=O)N2CCc2ccc(-c3nnn[nH]3)cc2)c1 (single isomer, unassigned) [9; isomer 1]
<0.1 10^−6 cm/s | 100 | 97 |  |  | Cc1cc(C(N)=O)ccc1-c1cccc(C(O)CCN2CCC(=O)N2CCc2ccc(C(=O)O)c(O)c2)c1 (single isomer, unassigned) [7; isomer 2]
